Several values for one entry are separate records, joined by “and”; a condition that tells them apart may be missing. Equal entries are not always repeated. Values belong to the compound of their own block, whether it stands above or below them.
How the values were obtained:
[1] = biological target: T1, rat α-thrombin (Rattus norvegicus, UniProt P18292); test: Protease inhibition, Ki for rat α-thrombin (fluorogenic substrate Z-Gly-Gly-Arg-AMC); assay type: biochemical; settings: replicates R1-R3
T1 construct: rat α-thrombin (Molecular Innovations) were used at final concentrations of 2 nM and 3 nM; purchased Molecular Innovations
Outline: (§1)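 Ki derived through Cheng–Prusoff from IC50s (four-parameter logistic fit) against activity of peptide-free controls. Product fluorescence was read every 3 min over 30 min at 25 °C, substrate Z-Gly-Gly-Arg-AMC at 50 μM. Enzyme was 2 nM human or 3 nM rat α-thrombin, pH 7.4 buffer.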

[2] = Peptide stability in simulated intestinal fluid (SIF); assay type: in vitro ADME, porcine; settings: simulated gi fluid; 8 h, 37 °C, pH 6.8; read-out: Proteolytic stability: SIF (8 h) % remaining
Procedure: (§2) Simulated gastric and intestinal fluids were prepared according to the States Pharmacopeia specifications (Test Solutions, United States Pharmacopeia 35, NF 30, 2012). SGF: 0.2 g of sodium chloride was dissolved in 50 ml of water, and the pH was adjusted to 1.2 by addition of 0.7 ml of 10 M hydrochloric acid. Then, 0.32 g of porcine pepsin (Sigma-Aldrich, P7125) was dissolved under gentle agitation, and the volume was filled up to 100 ml with Milli-Q water. SIF: 0.68 g of monobasic potassium phosphate was dissolved in 25 ml of Milli-Q water, and the pH was adjusted to 6.8 by adding 7.7 ml of a 0.2 M sodium hydroxide solution. Next, 1 g of porcine pancreatin (Sigma-Aldrich, P3292) was added under gentle agitation, and the volume was adjusted to 100 ml with Milli-Q water to afford a fine suspension. To test the stability in simulated gastrointestinal fluids, 396 μl of SGF or SIF was pre-heated at 37 °C for 10 min, and 4 μl of a 1 mM peptide solution in DMSO was added. […] Supernatant was analyzed by LC–MS to measure the peptide concentrations at the different timepoints. Residual peptide was calculated by normalizing the concentrations measured at T1 to T0.

[3] = system: porcine pancreatin; test: as above; assay type: in vitro ADME; settings: after 8 h vs 0 h (TIC); for SIF stability, Residual peptide Average: average of R1-R3
Procedure: as §2

[4] = Metabolic stability in rat liver microsomes (RLMs); settings: rat, microsomes
[5] = biological target: human α-thrombin (Homo sapiens, UniProt P00734); test: Protease inhibition, Ki for human α-thrombin (fluorogenic substrate Z-Gly-Gly-Arg-AMC); assay type: biochemical; settings: replicates R1-R3
Outline: as §1

[6] = Passive artificial membrane permeability (PAMPA); settings: for PAMPA permeability: % permeability: 50 μM, 12–18 h, acceptor concentration relative to equilibrium; for Papp at 50 μM / Permeability% Average / Permeability% R1 / Permeability% R3: PAMPA; for Papp at 50 μM: pH 7.4; for Permeability% Average: average of R1-R3; for Permeability% R1: replicate R1; for Permeability% R1 / Permeability% R3: TIC of top well sample relative to sample at theoretical equilibrium; for Permeability% R3: replicate R3
[7] = biological target: T2, porcine pepsin (Sus scrofa, UniProt P00791); test: Peptide stability in simulated gastric fluid (SGF); assay type: in vitro ADME; settings: for SGF stability, Residual peptide Average / SGF stability, Residual peptide: after 8 h vs 0 h (TIC); for SGF stability, Residual peptide Average: average of R1-R3; for SGF stability, Residual peptide: single replicates R1-R3; for remaining at 8 h: simulated gi fluid, 37 °C, pH 1.2, read-out: Proteolytic stability: SGF (8 h) % remaining
T2 construct: 0.32 g of porcine pepsin (Sigma-Aldrich, P7125) was dissolved under gentle agitation; purchased Sigma-Aldrich P7125
T2 sequence (P00791 60-385): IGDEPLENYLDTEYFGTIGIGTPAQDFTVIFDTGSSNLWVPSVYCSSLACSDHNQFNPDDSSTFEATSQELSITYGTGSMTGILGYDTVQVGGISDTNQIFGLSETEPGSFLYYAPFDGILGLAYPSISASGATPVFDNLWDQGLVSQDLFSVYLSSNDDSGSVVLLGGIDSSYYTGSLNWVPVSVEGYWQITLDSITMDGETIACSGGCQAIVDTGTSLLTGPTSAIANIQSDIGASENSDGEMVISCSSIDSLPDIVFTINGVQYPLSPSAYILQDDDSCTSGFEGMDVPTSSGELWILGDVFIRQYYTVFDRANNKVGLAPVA
Procedure: as §2

[8] = peptide 1.33E+02 uM, slope of proteolytic substrate cleavage over time
[9] = CL (ul/min/mg protein) R1, RLM CL, replicate R1
[10] = CL (ul/min/mg protein) R2, RLM CL, replicate R2
[11] = CL (ul/min/mg protein) R3, RLM CL, replicate R3
[12] = Half Life (min) R1, RLM metabolic stability, replicate R1, 0-60 min
[13] = Half Life (min) R2, RLM metabolic stability, replicate R2, 0-60 min
[14] = Half Life (min) R3, RLM metabolic stability, replicate R3, 0-60 min
[15] = Metabolic stability: Half life T1/2 (min), RLMs, mean and SD, three measurements
[16] = Metabolic stability: RLM CL (ul/min/mg), RLMs, mean and SD, three measurements

- Rat alpha thrombin inhibition, slope normalized to DMSO [1, 8]: 11.3 and 13.8 and 8.3
- Rat alpha thrombin inhibition, slope normalized to DMSO ([1]; peptide 1.67E+01 uM): 29.0 and 30.7 and 41.4
- Rat alpha thrombin inhibition, slope normalized to DMSO ([1]; peptide 2.08E+00 uM): 79.8 and 81.7 and 85.5
- Rat alpha thrombin inhibition, slope normalized to DMSO ([1]; peptide 3.33E+01 uM): 17.9 and 19.2 and 22.6
- Rat alpha thrombin inhibition, slope normalized to DMSO ([1]; peptide 4.17E+00 uM): 59.7 and 62.6 and 71.9
- Rat alpha thrombin inhibition, slope normalized to DMSO ([1]; peptide 6.67E+01 uM): 10.8 and 11.8 and 26.2
- Rat alpha thrombin inhibition, slope normalized to DMSO ([1]; peptide 8.33E+00 uM): 44.9 and 46.7 and 59.3
- remaining at 8 h [2]: 92 ± 9%
- SIF stability, Residual peptide Average [3]: 91.77
- SIF stability, Residual peptide ([3]; single replicates R1-R3): 101.93 and 87.06 and 86.31
- microsomal CLint [4, 9]: 149 µL/min/mg
- microsomal CLint [4, 10]: 98.2 µL/min/mg
- microsomal CLint [4, 11]: 109 µL/min/mg
- half-life [4, 12]: 9.3 min
- half-life [4, 13]: 14.1 min
- half-life [4, 14]: 12.7 min
- half-life [4, 15]: 12.1 ± 2 min
- microsomal CLint [4, 16]: 119 ± 22 µL/min/mg
- Human alpha thrombin inhibition, slope normalized to DMSO ([5]; peptide 1.02E-03 uM): 90.3 and 94.2 and 97.4
- Human alpha thrombin inhibition, slope normalized to DMSO ([5]; peptide 1.04E+00 uM): 86.6 and 86.7 and 88.9
- Human alpha thrombin inhibition, slope normalized to DMSO ([5]; peptide 1.27E-04 uM): 98.6 and 95.2 and 97.6
- Human alpha thrombin inhibition, slope normalized to DMSO ([5]; peptide 1.30E-01 uM): 95.9 and 91.0 and 95.3
- Human alpha thrombin inhibition, slope normalized to DMSO [5, 8]: 25.3 and 29.1 and 30.1
- Human alpha thrombin inhibition, slope normalized to DMSO ([5]; peptide 1.63E-02 uM): 109.1 and 94.1 and 96.6
- Human alpha thrombin inhibition, slope normalized to DMSO ([5]; peptide 1.67E+01 uM): 56.0 and 55.9 and 56.8
- Human alpha thrombin inhibition, slope normalized to DMSO ([5]; peptide 2.03E-03 uM): 98.0 and 93.9 and 96.6
- Human alpha thrombin inhibition, slope normalized to DMSO ([5]; peptide 2.08E+00 uM): 93.5 and 81.6 and 87.4
- Human alpha thrombin inhibition, slope normalized to DMSO ([5]; peptide 2.54E-04 uM): 96.9 and 93.2 and 95.5
- Human alpha thrombin inhibition, slope normalized to DMSO ([5]; peptide 2.60E-01 uM): 93.6 and 91.3 and 95.4
- Human alpha thrombin inhibition, slope normalized to DMSO ([5]; peptide 3.18E-05 uM): 97.0 and 94.8 and 95.7
- Human alpha thrombin inhibition, slope normalized to DMSO ([5]; peptide 3.26E-02 uM): 97.9 and 92.8 and 96.6
- Human alpha thrombin inhibition, slope normalized to DMSO ([5]; peptide 3.33E+01 uM): 44.0 and 43.7 and 42.6
- Human alpha thrombin inhibition, slope normalized to DMSO ([5]; peptide 4.07E-03 uM): 98.5 and 94.3 and 98.3
- Human alpha thrombin inhibition, slope normalized to DMSO ([5]; peptide 4.17E+00 uM): 81.7 and 78.5 and 82.6
- Human alpha thrombin inhibition, slope normalized to DMSO ([5]; peptide 5.09E-04 uM): 98.7 and 85.0 and 98.3
- Human alpha thrombin inhibition, slope normalized to DMSO ([5]; peptide 5.21E-01 uM): 102.0 and 91.0 and 92.1
- Human alpha thrombin inhibition, slope normalized to DMSO ([5]; peptide 6.36E-05 uM): 94.5 and 96.0 and 100.7
- Human alpha thrombin inhibition, slope normalized to DMSO ([5]; peptide 6.51E-02 uM): 96.7 and 92.1 and 95.5
- Human alpha thrombin inhibition, slope normalized to DMSO ([5]; peptide 6.67E+01 uM): 31.6 and 30.0 and 31.3
- Human alpha thrombin inhibition, slope normalized to DMSO ([5]; peptide 8.14E-03 uM): 98.1 and 93.7 and 96.2
- Human alpha thrombin inhibition, slope normalized to DMSO ([5]; peptide 8.33E+00 uM): 74.6 and 70.2 and 71.4
- PAMPA permeability: % permeability [6]: 0.86 ± 0.09%
- Papp at 50 μM [6]: 0.575 nm/s
- Permeability% Average [6]: 0.9%
- Permeability% R1 [6]: 0.87%
- Permeability% R3 [6]: 0.95%
- SGF stability, Residual peptide Average [7]: 97.83
- SGF stability, Residual peptide [7]: 97.70 and 100.05 and 95.74
- remaining at 8 h [7]: 98 ± 2%
SMILES: O=C1CCSCc2cccc(n2)CSCCNC(=O)[C@H](CO)NC(=O)[C@@H](NC(=O)c2ccc(Cl)s2)CN1 [compound 17]

- Rat alpha thrombin inhibition, slope normalized to DMSO [1, 8]: 32.2 and 38.1 and 17.4
- Rat alpha thrombin inhibition, slope normalized to DMSO ([1]; peptide 1.67E+01 uM): 45.0 and 46.6 and 55.7
- Rat alpha thrombin inhibition, slope normalized to DMSO ([1]; peptide 2.08E+00 uM): 90.4 and 89.1 and 91.4
- Rat alpha thrombin inhibition, slope normalized to DMSO ([1]; peptide 3.33E+01 uM): 47.9 and 19.5
- Rat alpha thrombin inhibition, slope normalized to DMSO ([1]; peptide 4.17E+00 uM): 77.9 and 77.5 and 82.1
- Rat alpha thrombin inhibition, slope normalized to DMSO ([1]; peptide 6.67E+01 uM): 36.2 and 41.8
- Rat alpha thrombin inhibition, slope normalized to DMSO ([1]; peptide 8.33E+00 uM): 63.0 and 63.5 and 66.0
- remaining at 8 h [2]: 99 ± 9%
- SIF stability, Residual peptide Average [3]: 98.53
- microsomal CLint [4, 9]: 117 µL/min/mg
- microsomal CLint [4, 10]: 96.6 µL/min/mg
- microsomal CLint [4, 11]: 95.7 µL/min/mg
- half-life [4, 12]: 11.8 min
- half-life [4, 13]: 14.3 min
- half-life [4, 14]: 14.5 min
- half-life [4, 15]: 13.5 ± 1.2 min
- microsomal CLint [4, 16]: 103 ± 10 µL/min/mg
- Human alpha thrombin inhibition, slope normalized to DMSO ([5]; peptide 1.02E-03 uM): 93.1 and 89.2 and 94.7
- Human alpha thrombin inhibition, slope normalized to DMSO ([5]; peptide 1.04E+00 uM): 93.7 and 88.7 and 98.8
- Human alpha thrombin inhibition, slope normalized to DMSO ([5]; peptide 1.27E-04 uM): 100.2 and 94.8 and 98.1
- Human alpha thrombin inhibition, slope normalized to DMSO ([5]; peptide 1.30E-01 uM): 94.8 and 90.7 and 96.5
- Human alpha thrombin inhibition, slope normalized to DMSO [5, 8]: 52.1 and 50.8 and 55.1
- Human alpha thrombin inhibition, slope normalized to DMSO ([5]; peptide 1.63E-02 uM): 97.1 and 95.8 and 94.6
- Human alpha thrombin inhibition, slope normalized to DMSO ([5]; peptide 1.67E+01 uM): 73.4 and 68.5 and 72.3
- Human alpha thrombin inhibition, slope normalized to DMSO ([5]; peptide 2.03E-03 uM): 97.3 and 94.1 and 99.2
- Human alpha thrombin inhibition, slope normalized to DMSO ([5]; peptide 2.08E+00 uM): 89.4 and 90.0 and 79.4
- Human alpha thrombin inhibition, slope normalized to DMSO ([5]; peptide 2.54E-04 uM): 98.0 and 92.5 and 94.6
- Human alpha thrombin inhibition, slope normalized to DMSO ([5]; peptide 2.60E-01 uM): 94.5 and 91.9 and 98.0
- Human alpha thrombin inhibition, slope normalized to DMSO ([5]; peptide 3.18E-05 uM): 100.9 and 96.3 and 98.9
- Human alpha thrombin inhibition, slope normalized to DMSO ([5]; peptide 3.26E-02 uM): 93.0 and 91.8 and 94.1
- Human alpha thrombin inhibition, slope normalized to DMSO ([5]; peptide 3.33E+01 uM): 68.4 and 72.8 and 70.8
- Human alpha thrombin inhibition, slope normalized to DMSO ([5]; peptide 4.07E-03 uM): 96.7 and 91.0 and 96.0
- Human alpha thrombin inhibition, slope normalized to DMSO ([5]; peptide 4.17E+00 uM): 85.6 and 83.5 and 84.3
- Human alpha thrombin inhibition, slope normalized to DMSO ([5]; peptide 5.09E-04 uM): 95.1 and 89.7 and 99.5
- Human alpha thrombin inhibition, slope normalized to DMSO ([5]; peptide 5.21E-01 uM): 94.5 and 87.9 and 92.4
- Human alpha thrombin inhibition, slope normalized to DMSO ([5]; peptide 6.36E-05 uM): 96.8 and 88.2 and 100.6
- Human alpha thrombin inhibition, slope normalized to DMSO ([5]; peptide 6.51E-02 uM): 133.7 and 92.1 and 94.3
- Human alpha thrombin inhibition, slope normalized to DMSO ([5]; peptide 6.67E+01 uM): 63.9 and 63.5 and 65.7
- Human alpha thrombin inhibition, slope normalized to DMSO ([5]; peptide 8.14E-03 uM): 96.2 (2×) and 90.9
- Human alpha thrombin inhibition, slope normalized to DMSO ([5]; peptide 8.33E+00 uM): 81.3 and 78.4 and 82.3
- PAMPA permeability: % permeability [6]: 2.73 ± 1.02%
- Papp at 50 μM [6]: 1.74 nm/s
- Permeability% Average [6]: 2.7%
- Permeability% R1 [6]: 2.77%
- Permeability% R3 [6]: 1.69%
- SGF stability, Residual peptide Average [7]: 99.57
- SGF stability, Residual peptide [7]: 102.25 and 97.75 and 98.72
- remaining at 8 h [7]: 100 ± 2%
SMILES: C[C@@H]1NC(=O)[C@@H](NC(=O)c2ccc(Cl)s2)CNC(=O)CCSCc2cccc(n2)CSCCNC1=O [compound 18]
